From patent US9266834B2, “1, 4-disubstituted 3-cyano-pyridone derivatives and their use as positive allosteric modulators of MGLUR2-receptors” (JANSSEN PHARMACEUTICALS, INC., priority 2006, dated 2016)

Assays:
[1] = target: T1, human mGluR2 receptor (Homo sapiens, UniProt Q14416); experiment: [35S]GTPγS binding assay (GTPγS-PAM): positive allosteric modulation in presence of glutamate at EC25, membranes from transfected CHO cells; type: biochemical; conditions: in presence of mGluR2 agonist glutamate at predetermined EC25 concentration, averages of duplicate values of 11-concentration response curves, read-out: GTPgS - hR2 PAM pEC50 (converted)
T1 construct: expressed in transfected cells; host or cells: CHO cells (membrane preparation)
Procedure, shortened: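 Membranes came from butyrate-stimulated CHO cells expressing human mGluR2, used at 15 μg/well in HEPES pH 7.4 with 100 mM NaCl, 3 mM MgCl2, 50 μM GDP and saponin. Compound (0.3 nM-50 μM, 11 concentrations) plus glutamate at EC25 was preincubated 30 min at 30° C., then 0.1 nM [35S]GTPγS was added for 30 min. Filter-bound radioactivity was counted, nonspecific binding was taken with 10 μM GTP, and curves were fitted by four-parameter logistic.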

T1 sequence (Q14416 19-872): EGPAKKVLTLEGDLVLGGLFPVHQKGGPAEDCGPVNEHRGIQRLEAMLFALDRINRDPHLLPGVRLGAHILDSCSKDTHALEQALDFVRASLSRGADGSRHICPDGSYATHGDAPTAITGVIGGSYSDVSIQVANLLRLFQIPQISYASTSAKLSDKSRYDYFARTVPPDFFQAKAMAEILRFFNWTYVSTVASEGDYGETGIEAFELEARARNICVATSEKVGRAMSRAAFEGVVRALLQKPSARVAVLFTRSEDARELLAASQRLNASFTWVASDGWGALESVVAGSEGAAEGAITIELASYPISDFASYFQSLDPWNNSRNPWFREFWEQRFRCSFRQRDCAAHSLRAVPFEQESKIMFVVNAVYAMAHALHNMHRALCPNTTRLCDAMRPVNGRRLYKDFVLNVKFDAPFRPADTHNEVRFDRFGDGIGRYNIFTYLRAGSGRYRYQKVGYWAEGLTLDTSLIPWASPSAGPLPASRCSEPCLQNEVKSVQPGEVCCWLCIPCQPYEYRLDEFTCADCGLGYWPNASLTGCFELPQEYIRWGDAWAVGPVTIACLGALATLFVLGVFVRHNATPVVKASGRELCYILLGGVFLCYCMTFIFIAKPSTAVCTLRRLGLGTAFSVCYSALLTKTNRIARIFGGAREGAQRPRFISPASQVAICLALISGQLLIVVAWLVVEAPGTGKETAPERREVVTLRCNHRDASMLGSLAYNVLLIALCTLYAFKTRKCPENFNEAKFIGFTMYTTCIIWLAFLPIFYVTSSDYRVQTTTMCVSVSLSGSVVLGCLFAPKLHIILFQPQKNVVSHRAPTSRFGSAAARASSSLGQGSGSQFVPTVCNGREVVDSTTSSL

| SMILES | EC50 [1] [nM] | melting point [°C] |
| --- | --- | --- |
| CC(C)CCn1ccc(-c2ccc(N3CCC(O)CC3)cc2)c(C#N)c1=O [1-220] | 1260 | 213 |
| CC(C)CCn1ccc(-c2ccc(N3CCOCC3)cc2)c(C#N)c1=O [1-223, 3-cyano-4-(4-(N-morpholyl)phenyl)-1-(3-methylbutyl)pyridine-2(1H)-one] | 2000 | 171 |
| COc1cc(-c2ccn(CCC(C)C)c(=O)c2C#N)ccc1N1CCOCC1 [1-225] | 2000 | 151 |
| CC(C)CCn1ccc(-c2ccc(N3CCOCC3)c(Br)c2)c(C#N)c1=O [1-226] | 126 | 118 |
| CC(C)CCn1ccc(-c2ccc(N3CC(C)OC(C)C3)cc2)c(C#N)c1=O (stereo not drawn) [1-227] | 501 | 162 |
| CC(C)CCn1ccc(-c2ccc(N3CCOc4ccccc43)cc2)c(C#N)c1=O [1-228] | 79.4 | 148 |
| CC(=O)N1CCN(c2cccc(-c3ccn(CCC(C)C)c(=O)c3C#N)c2)CC1 [1-230] | 501 | 143 |
| CC(=O)c1ccc(-c2ccn(CCC(C)C)c(=O)c2C#N)cc1 [1-238] | 3160 | 130 |
| COC(=O)CCc1ccc(-c2ccn(CCC(C)C)c(=O)c2C#N)cc1 [1-239] | 794 | 120 |
| CC(C)CCn1ccc(-c2ccc(CC(=O)N(C)C)cc2)c(C#N)c1=O [1-244] | 6310 | 122 |
| CC(C)CCn1ccc(-c2ccc(C(=O)N(C)Cc3ccccc3)cc2)c(C#N)c1=O [1-245] | 794 | 135 to 140 |
| CC(C)CCn1ccc(-c2ccc(C(=O)N3CCN(Cc4ccc(OC(F)(F)F)c(Cl)c4)CC3)cc2)c(C#N)c1=O [1-247] | 398 | 217 |
| CC(C)CCn1ccc(-c2ccc3c(c2)CCO3)c(C#N)c1=O [1-251] | 1260 | 117 |
| CC(C)CCn1ccc(-c2ccc3c(c2)OCO3)c(C#N)c1=O [1-252] | 6310 | 120 to 121 |
| CC(C)CCn1ccc(-c2ccc(CC#N)cc2)c(C#N)c1=O [1-254] | 2510 | 122 |
| CC(C)CCn1ccc(-c2ccc(C(C#N)c3ccn(CCC(C)C)c(=O)c3C#N)cc2)c(C#N)c1=O (stereo not drawn) [1-255] | 794 | 233 |
| CSc1ccc(-c2ccn(CCC(C)C)c(=O)c2C#N)cc1 [1-256] | 158 | 128 |
| COc1ccc(CCc2ccn(CCC(C)C)c(=O)c2C#N)cc1 [1-265] | 1260 | 88 |
| CC(C)CCn1ccc(C#Cc2ccc(N(C)C)cc2)c(C#N)c1=O [1-270] | 100 | 166 |
| CC(C)CCn1ccc(OCc2ccccc2)c(C#N)c1=O [1-275] | 1260 | 174 |
| CC(C)CCn1ccc(OCc2cccc(OC(F)(F)F)c2)c(C#N)c1=O [1-279] | 398 | 116 |
| COc1ccc(Oc2ccn(CCC(C)C)c(=O)c2C#N)cc1 [1-282] | 794 | 153 |
| CC(C)CCn1ccc(OCc2ccc(OC(F)F)cc2)c(C#N)c1=O [1-284] | 631 | 190 |
| CC(C)CCn1ccc(OC2Cc3ccccc3C2)c(C#N)c1=O [1-288] | 1000 | 169 |
| CCOC(=O)c1ccc(-c2cccc(COc3ccn(CCC(C)C)c(=O)c3C#N)c2)cc1 [1-290] | 158 | 148 |
| CC(C)CCn1ccc(OCc2ccc(CN3CCOCC3)cc2)c(C#N)c1=O [1-292] | 1260 | 154 |
| CC(C)CCn1ccc(OCCN(C)Cc2cccc(F)c2)c(C#N)c1=O [1-293] | 2510 | 209 |
| CCCCn1ccc(Nc2ccc(Oc3cccnc3)cc2)c(C#N)c1=O [1-296] | 1580 | 151 |
| CC(C)CCn1ccc(N(C)C2CCN(Cc3cccc(C(F)(F)F)c3)CC2)c(C#N)c1=O [3-006] | 2510 | 131 |
| CN(c1ccn(Cc2ccc(OC(F)(F)F)cc2)c(=O)c1C#N)C1CCN(Cc2ccccc2)CC1 [3-013] | 3980 | 211 |

The remaining lines, values ahead:

| EC50 [1] [nM] | melting point [°C] | SMILES |
| --- | --- | --- |
| 3160 | 183 | CCCCn1ccc(N2CCN(Cc3cc(F)cc(C(F)(F)F)c3)CC2)c(C#N)c1=O [2-001] |
| 316 | 127 | CCCCn1ccc(N2CCN(Cc3ccc(OC(F)(F)F)c(Cl)c3)CC2)c(C#N)c1=O [2-002] |
| 158 | 134 | CCCCn1ccc(N2CCN(Cc3ccc(OCC4CC4)c(Cl)c3)CC2)c(C#N)c1=O [2-003] |
| 1000 | 112 | CC(C)Cn1ccc(N2CCN(Cc3ccc(OC(F)(F)F)c(Cl)c3)CC2)c(C#N)c1=O [2-010] |
| 158 | 256 | CC(C)CCn1ccc(N2CCN(Cc3ccc(OC(F)(F)F)c(Cl)c3)CC2)c(C#N)c1=O [2-022] |
| 200 | 135 | CC(C)CCn1ccc(N2CCN(c3ncccc3C(F)(F)F)CC2)c(C#N)c1=O [2-026] |
| 251 | 155 | CC(C)CCn1ccc(N2CCN(c3nccc(C(F)(F)F)n3)CC2)c(C#N)c1=O [2-029] |
| 1000 | 288 | CC(C)CCn1ccc(N2CCN(c3nc4ccccc4o3)CC2)c(C#N)c1=O [2-035] |
| 1000 | 223 | CC(C)CCn1ccc(C(=O)N2CCN(c3ncccn3)CC2)c(C#N)c1=O [2-037] |
| 5010 | 140 | N#Cc1c(N2CCN(Cc3cc(F)cc(C(F)(F)F)c3)CC2)ccn(CC2CC2)c1=O [2-038] |
| 794 | 125 | N#Cc1c(N2CCN(Cc3ccc(OC(F)(F)F)c(Cl)c3)CC2)ccn(CC2CC2)c1=O [2-039] |
| 501 | 157 | N#Cc1c(N2CCN(Cc3ccc(OCC4CC4)c(Cl)c3)CC2)ccn(CC2CC2)c1=O [2-040] |
| 251 | 110 | N#Cc1c(N2CCN(CCc3ccccc3)CC2)ccn(Cc2ccc(OC(F)(F)F)cc2)c1=O [2-043] |
| 1580 | 156 | N#Cc1c(N2CCN(Cc3ccc(F)cc3)CC2)ccn(Cc2ccc(OC(F)(F)F)cc2)c1=O [2-044] |
| 3160 | 92 | N#Cc1c(N2CCN(CC(=O)c3ccccc3)CC2)ccn(Cc2ccc(OC(F)(F)F)cc2)c1=O [2-046] |
| 79.4 | 258 | N#Cc1c(N2CCN(c3ncccc3C(F)(F)F)CC2)ccn(Cc2ccc(OC(F)(F)F)cc2)c1=O [2-048] |
| 3160 | 239 | N#Cc1c(N2CCN(Cc3ccc(F)c(F)c3)CC2)ccn(Cc2ccc(F)cc2)c1=O [2-051] |
| 251 | 188 | CC(C)CCn1ccc(NC2CCN(c3ccc(C(F)(F)F)cn3)CC2)c(C#N)c1=O [3-004] |

| EC50 [1] [nM] | melting point [°C] | SMILES |
| --- | --- | --- |
| 6310 | 208 | CC(C)CCn1ccc(OC2CCN(Cc3ccccc3)CC2)c(C#N)c1=O [3-007] |
| 158 | 117 | CC(C)CCn1ccc(OCC2CCN(Cc3cccc(C(F)(F)F)c3)CC2)c(C#N)c1=O [3-009] |
| 1580 | 187 | N#Cc1c(NC2CCN(Cc3ccc(OC(F)(F)F)c(Cl)c3)CC2)ccn(CC2CC2)c1=O [3-010] |
| 3980 | 132 | CCCCn1ccc(N2CCC(c3ccnc(C)c3)CC2)c(C#N)c1=O [4-003] |
| 3160 | 188 | CCCCn1ccc(N2CCC(Oc3cccnc3)CC2)c(C#N)c1=O [4-004] |
| 398 | 296 | CC(C)CCn1ccc(N2CCC(C(=O)c3ccccc3)CC2)c(C#N)c1=O [4-012] |
| 50.1 | 112 | CC(C)CCn1ccc(N2CCC(c3cccc(C(F)(F)F)c3)CC2)c(C#N)c1=O [4-016] |
| 79.4 | 100 | CC(C)CCn1ccc(N2CCC(CCOc3ccc(F)cc3)CC2)c(C#N)c1=O [4-019] |
| 1260 | 113 | CC(C)CCn1ccc(N2CCC(N(C)Cc3ccc(F)cc3)CC2)c(C#N)c1=O [4-027] |
| 126 | 91 | CC(C)CCn1ccc(N2CCC(N(C)Cc3ccc(C(F)(F)F)cc3)CC2)c(C#N)c1=O [4-029] |
| 63.1 | 141 | CC(C)CCn1ccc(N2CCC(N(C)c3cccc(C(F)(F)F)c3)CC2)c(C#N)c1=O [4-031] |
| 3160 | 253 | CC(C)CCn1ccc(N2CCC(N3CCc4ccccc4C3)CC2)c(C#N)c1=O [4-034] |
| 126 | 78 | CC(C)CCn1ccc(N2CCC(n3ccc4cc(F)ccc43)CC2)c(C#N)c1=O [4-037] |
| 398 | 214 | CC(C)CCn1ccc(N2CCC(c3nc4ccccc4o3)CC2)c(C#N)c1=O [4-038] |
| 39.8 | 123 | CC(C)CCn1ccc(N2CCC(c3coc4cc(F)ccc34)CC2)c(C#N)c1=O [4-039] |
| 398 | 113 | CC(C)CCn1ccc(N2CCC(c3noc(CC(C)(C)C)n3)CC2)c(C#N)c1=O [4-040] |
| 501 | 138 | CC(C)CCn1ccc(N2CCC(Nc3ccccc3)C(C)C2)c(C#N)c1=O (stereo not drawn) [4-043] |
| 200 | 138 | CN(Cc1ccccc1)C1CCN(c2ccn(Cc3ccc(OC(F)(F)F)cc3)c(=O)c2C#N)CC1 [4-049] |
